In data set [1] the test system is low passage, clinical strains of HIV-1. Put plainly: Anti-HIV activity in fresh human peripheral blood mononuclear cells. Type of data set: cell-based. Particulars: fresh human PBMC; varies from strain to strain. As for the experimental part: In another experiment, the anti-HIV activity of Oligos 12, 32, and 41 was evaluated against a variety of low passage, clinical strains of HIV-1 in fresh human peripheral blood mononuclear cells. These strains include viruses obtained from pediatric patients attending the Children's Hospital University of Alabama at Birmingham as well as viruses representative of the various HIV-1 clades found throughout the world, shown below in TABLE 4.
Fresh human peripheral blood lymphocytes (PBL) were isolated from voluntary Red Cross donors, seronegative for HIV and HBV. Leukophoresed blood was diluted 1:1 with Dulbecco's phosphate buffered saline (PBS), layered over 14 ml of Ficoll-Hypaque density gradient in a 50 ml centrifuge tube. Tubes were then centrifuged for 30 minutes at 600×g. Banded PBLs were gently aspirated from the resulting interface and subsequently washed 2× with PBS by low speed centrifugation. After final wash, cells were enumerated by trypan blue exclusion and re-suspended at 1×10^7/ml in RPMI 1640 with 15% Fetal Bovine Serum (FBS), 2 mM L-glutamine, […] PHA-P and allowed to incubate for 48–72 hours at 37° C. After incubation, PBLs were centrifuged and reset in RPMI 1640 with 15% FBS, 2 mM L-glutamine, 100 U/ml penicillin, 100 μg/ml streptomycin, 10 μg/ml gentamycin, and 20 U/ml recombinant human IL-2. PBLs were maintained in this medium at a concentration of 1–2×10^6/ml with bi-weekly medium changes, until use in assay protocol. […]
In the standard PBL assay (MOI: 0.2), the assay was ended on day 7 following collection of cell free supernatant samples for reverse transcriptase activity assay. In the low MOI PBL assay (MOI: 0.02), supernatant samples were collected on day 6, day 11, and day 14 post-infection and analyzed for RT activity. […] Opti-Fluor O was added to each sample and incorporated radioactivity was quantified utilizing a liquid scintillation counter, (Wallac 1450 Microbetaplus, Gaithersburg, Md.).

Another data set relates to HIV-1 (IIIB, RF and SK1). Description: XTT-based anti-HIV assay, laboratory strains of HIV-1. In kind it is cell-based. The text has this:
The initial experiment performed involved evaluation of Oligos 12, 32, and 41 against three laboratory strains of HIV-1 (IIIB, RF and SK1) and one strain of HIV-2 (ROD) in parallel with the positive control compound ddC in the XTT-based anti-HIV assay. All these oligonucleotides are active against both HIV-1 and HIV-2.
CEM-SS sells (AIDS Research and Reference Reagent Program, NIH) or other established human T cell lines used in these experiments were passaged in T-150 flasks for use in the assay. On the day preceding the assay, the cells were split 1:2 to assure they would be in an exponential growth phase at time of infection. On the day of assay the cells were washed twice with tissue culture medium and resuspended in fresh tissue cultures medium. Total cell and viability counting was performed using a hemacytometer and trypan blue dye exclusion. Cell viability was greater than 95% for the cells to be utilized in the assay. The cells were pelleted and resuspended at 2.5×10^4 cells per ml in tissue culture medium. […]
A pretitered aliquot of virus was removed from the freezer −80° C.) and allowed to thaw slowly to room temperature in a biological safety cabinet. The virus was resuspended and diluted into tissue culture medium such that the amount of virus added to each well in a volume of 50 μl will be the amount determined to give complete cell killing at 6 days post-infection. […]
After 6 days of incubation at 37° C. in a 5% CO2 incubator, the test plates were analyzed by staining with the tetrazolium dye XTT. XTT-tetrazolium is metabolized by the mitochondrial enzymes of metabolically active cells to a soluble formazan product, allowing the rapid quantitative analysis of the inhibition of HIV-induced cell killing by anti-HIV test substances. […]
XTT solution was prepared daily as a stock of 1 mg/ml in PBS. […] Adhesive plate sealers were used in place of the lids, the sealed plate was inverted several times to mix the soluble formazan product and the plate was read spectrophotometrically at A450 nm with a Molecular Devices Vmax plate reader.

Experimental findings from patent US7173014B2, “HIV-specific synthetic oligonucleotides and methods of their use” (priority 1997, dated 2007) are described below.

As for “Oligo 41: oligonucleotide having SEQ ID NO:6; sequence not printed, not listed in TABLE 2 (UCGCACCCATCTCTCTCCUUC; chemistry not given here)”, in data set [1], the “activity against low passage clinical T-tropic strains of HIV-1” value is on record as “active”. In addition, the “activity against HIV-1” value in the data set on HIV-1 (IIIB, RF and SK1) is reported as “active”.
